Experimental findings from US20180243211A1, “A PHARMACEUTICAL COMPOSITION FOR REDUCING LOCAL FAT AND USES THEREOF” (Caliway Biopharmaceuticals Co., Ltd., priority 2015, published 2018) are described below.

Molecules are shown by their SMILES.

One assay has as its system mature adipocytes (differentiated 3T3-L1 cells). The assay can be described thus: Experiment 10-2: apoptosis of mature adipocytes (annexin V/PI flow cytometry), resveratrol with hydrophilic drugs. In kind it is cell-based. The note with it: 50 ppm total drug (complexes 20 ppm resveratrol + 30 ppm second drug), 24 hours; sterile water control 9.6±1.5%. The method, then:
A sterile water control group cell culture medium, a resveratrol cell culture medium, a caffeine cell culture medium, a L-carnitine cell culture medium, a resveratrol-caffeine complex cell culture medium, and a resveratrol-L-carnitine complex cell culture medium were prepared as follows: The sterile water control group cell culture medium: Sterile water was mixed with a cell culture medium to prepare the sterile water control group cell culture medium, wherein, the volume ratio between the sterile water and the cell culture medium is 1:1000. The resveratrol cell culture medium: it is the same method as the preparation of the resveratrol cell culture medium in Experiment 9-2. The caffeine cell culture medium: caffeine (purchased from Sigma-Aldrich) was mixed with an appropriate amount of sterile water to obtain a caffeine solution. The caffeine solution was mixed with a cell culture medium to prepare the caffeine cell culture medium containing 50 ppm of caffeine, wherein, the volume ratio between the caffeine solution and the cell culture medium is 1:1000. The L-carnitine cell culture medium: L-carnitine (purchased from Sigma-Aldrich) was mixed with an appropriate amount of sterile water to obtain a L-carnitine solution. The L-carnitine solution was mixed with a cell culture medium to prepare the L-carnitine cell culture medium containing 50 ppm of L-carnitine, wherein, the volume ratio between the L-carnitine solution and the cell culture medium is 1:1000. The resveratrol-caffeine complex cell culture medium: resveratrol, caffeine, and an appropriate amount of sterile water were mixed to obtain a resveratrol-caffeine complex solution. […] Annexin V protein (purchased from eBioscience) and propidium iodide (PI; purchased from eBioscience) were mixed with the cells in each group for a period of time, and then the percentage of cells labeled by annexin V protein and PI in each group was analyzed by flow cytometry to assess the percentage of mature adipocytes undergoing apoptosis.
(In flow cytometry, cells or beads pass a laser one at a time.)
On to `Cn1c(=O)c2c(ncn2C)n(C)c1=O` [caffeine], for which the “percentage of apoptotic cells” value amounted to 6.9±1.1%.
As for `Oc1ccc(C=Cc2cc(O)cc(O)c2)cc1` [resveratrol], the “percentage of apoptotic cells” value was 19.0±1.1%.
The same measure, in the same setting: under `C[N+](C)(C)C[C@H](O)CC(=O)[O-]` [L-carnitine] stands 5.2±1.2%.

A further assay has the same test system. As to the kind of experiment: Experiment 9-2: apoptosis of mature adipocytes (annexin V/PI flow cytometry), resveratrol with lipophilic drugs. In kind it is cell-based. As to conditions: 50 ppm total drug (complexes 20 ppm resveratrol + 30 ppm second drug), 24 hours; DMSO control 4.9±2.5%. As to the method:
A DMSO control group cell culture medium, a resveratrol cell culture medium, a puerarin cell culture medium, a quercetin cell culture medium, a resveratrol-puerarin complex cell culture medium, and a resveratrol-quercetin complex cell culture medium were prepared as follows: The DMSO control group cell culture medium: DMSO was mixed with an appropriate amount of sterile water to obtain a 0.5% DMSO solution. The 0.5% DMSO solution was mixed with a cell culture medium (product name: Dulbecco's Modified Eagle Medium, purchased from Gibco) to prepare the DMSO control group cell culture medium, wherein, the volume ratio between the 0.5% DMSO solution and the cell culture medium is 1:1000. The resveratrol cell culture medium: resveratrol was mixed with an appropriate amount of 0.5% DMSO solution to obtain a resveratrol solution. The resveratrol solution was mixed with a cell culture medium (product name: Dulbecco's Modified Eagle Medium, purchased from Gibco) to prepare the resveratrol cell culture medium containing 50 ppm of resveratrol, wherein, the volume ratio between the resveratrol solution and the cell culture medium is 1:1000. The puerarin cell culture medium: puerarin (purchased from Sigma-Aldrich) was mixed with an appropriate amount of 0.5% DMSO solution to obtain a puerarin solution. The puerarin solution was mixed with a cell culture medium to prepare the puerarin cell culture medium containing 50 ppm of puerarin, wherein, the volume ratio between the puerarin solution and the cell culture medium is 1:1000. The quercetin cell culture medium: quercetin (purchased from Sigma-Aldrich) was mixed with an appropriate amount of 0.5% DMSO solution to obtain a quercetin solution. […] Annexin V protein (purchased from eBioscience) and propidium iodide (PI; purchased from eBioscience) were mixed with the cells in each group for a period of time, and then the percentage of cells labeled by annexin V protein and PI in each group was analyzed by flow cytometry to assess the percentage of mature adipocytes undergoing apoptosis. […]
Take `O=c1c(O)c(-c2ccc(O)c(O)c2)oc2cc(O)cc(O)c12` [quercetin]: the “percentage of apoptotic cells” value stood at 5.9±2.6%.
Regarding `O=c1c(-c2ccc(O)cc2)coc2c([C@@H]3O[C@H](CO)[C@@H](O)[C@H](O)[C@H]3O)c(O)ccc12` [puerarin], the “percentage of apoptotic cells” value was 7.2±3.7%.
The same measure, in the same setting: in the case of `Oc1ccc(C=Cc2cc(O)cc(O)c2)cc1` [resveratrol] it was 19.1±1.1%.
